Measured values reported in patent US20210220331A1, “INHIBITORS OF IRES-MEDIATED PROTEIN SYNTHESIS” (The Regents of the University of California, priority 2016, published 2021).

Experiments:
[1] = molecular target: T1, UP1 fragment of hnRNP A1 / cyclin D1 or c-MYC IRES RNAs (Homo sapiens, UniProt P09651); assay: Filter binding assay of GST-tagged hnRNP A1 mutants with IRES RNAs; settings: for association of UP1 fragment (a.a. 1-196) with cyclin D1 or c-MYC IRESs: GST-tagged protein
T1 construct: The UP1 fragment (a.a. 1-196) containing RRM1 and RRM2; made in house; host or cells: HEK293 cells
Method: Filter binding assays were performed as previously described (18,23). GSTtagged hnRNP A1 or hnRNP A1 deletion mutants were added to in vitro transcribed 32Plabeled RNAs corresponding to either the cyclin D1 or c-MYC IRESs in separate reactions in a volume of 10 μl in buffer containing 5 mM HEPES (pH 7.6), 30 mM KCl, 2 mM MgCl2, 200 mM DTT, 4% glycerol and 10 ng yeast tRNA for 10 min at room temperature. 8 μl of each binding reaction was applied to nitrocellulose membranes on a slot blot apparatus (Minifold II, Schleicher & Schuell). Membranes were washed and dried, and signals quantified using a phosphorimager.
To begin to investigate the mechanism of action of C11 and IRES-J007, it was initially determined whether the UP1 fragment of hnRNP A1 was sufficient to recapitulate C11 or IRESJ007-mediated inhibition of IRES binding to this ITAF. The relative association between the mutant proteins and either the cyclin D1 or c-MYC IRESs was determined by filter binding assays in the absence or presence of the inhibitors (FIG. 4B). […] Additionally, a mutant encompassing residues 103-372, containing RRM2 bound both IRES sequences and binding was reduced in the presence of either of the inhibitors. […] The presence of RRM2 is necessary and appears to cooperate with RRM1 to mediate IRES binding that is sensitive to C11 or IRES-J007. Finally, UP1 is capable of IRES binding that is blocked by either C11 or the analog IRES-J007.
Mutant 1-196 constitutes the Up1 fragment of full-length human hnRNP A1. In the Δ130-158 mutant, the sequences encompassing RRM2 have been removed. (B) Binding of either cyclin D1 (top panel) or c-MYC (bottom panel) IRES RNAs to GST-tagged hnRNP A1 mutants in the absence or presence of C11 or IRES-J007 as assayed by filter binding. The mean and +SD are shown for three independent experiments.

hnRNP A1 [2] = molecular target: T2, hnRNP A1 (Homo sapiens, UniProt P09651, D123A/H120A/N171A/Y124A); assay: Photo-cross-linked inhibitor bead binding assay; settings: alanine substitutions at 120, 123, 124 and 171
T2 construct: pGEX-2T/hnRNP A1 (full length hnRNP A1) and pGEX-2T/UP1 GST fusions; made in house; host or cells: HEK293 cells
Method: (§1) Photo-cross-linked C11 and IRES-J007 beads were prepared as previously described (25). Activated Sepharose beads were washed three times with 1 mM aqueous HCl followed by coupling solution (100 mM NaHCO3 and 50% dioxane mixture). A solution of photoaffinity linker in coupling solution was subsequently added to the beads and incubated at 37° C. for 2 h. After washing five times with coupling solution the beads were blocked and placed in a spin column and washed three times with water and methanol. The beads were subsequently irradiated in a UV cross-linker at 365 nm (4 J/cm2) and washed with methanol. Purified GST-tagged native or mutant hnRNP A1 proteins were added to 20 μl of C11 or J007 cross-linked or control uncross-linked beads. After incubating at 4° C. for 24 h, the beads were washed three times and bound proteins eluted in 10% SDS-PAGE sample buffer at 100° C. for 5 min. and the eluted proteins were resolved by SDS-PAGE and immunoblotted using GST antibodies.
(§2) The configurations with the most favorable binding energies were visualized using PyMOL v1.5.6. The electrostatic surface representation of the crystal structure of UP1 is shown with RNP residues of RRM1 and RRM2 labeled in blue. In the 90°-rotated model, the inhibitor interaction pocket is shown in yellow. The inset is a close-up of C11 and IRES-J007 binding to the potential binding site on UP1. Residues predicted to interact with the inhibitors are labeled. (B) Purified GST-tagged wild-type hnRNP A1 (A1) and mutant A1 (4ΔA1) proteins harboring alanine substitutions at all four potential binding sites (120, 123,124 and 171) were added to uncross-linked, C11 and J007-cross-linked beads. Isolated wild-type (A1) and mutant (4ΔA1) proteins were resolved by SDS-PAGE and silver-stained to monitor purity (top panels). The binding of A1 to control, C11 and J007 beads was detected by immunoblotting with GST antibodies (bottom panel). (C) Inhibition of basal IRES activity in 293T cells upon treatment with C11 or IRES-J007. IRES reporter activity was assessed following 24 h treatment with 50 nM concentrations of each inhibitor as indicated. The mean and +SD are shown for three independent experiments. (D) RNA-pull down assays utilizing biotinylated cyclin D1 or c-MYC IRES RNAs of 293T cell extracts treated with the inhibitors as in FIG. 2C.
(§3) To further examine how C11 and IRES-J007 inhibit hnRNP A1 function, used in silico docking analysis was used to create a potential model for the binding of these inhibitors to UP1. […] The purified proteins were then incubated with control, C11 or J007 beads and binding analyzed by immunoblotting using anti-GST antibodies. […]

hnRNP A1 [3] = molecular target: T3, hnRNP A1 (Homo sapiens, UniProt P09651); assay: Photo-cross-linked inhibitor bead binding assay; settings: vs control beads, anti-GST immunoblot
T3 construct: pGEX-2T/hnRNP A1 (full length hnRNP A1) and pGEX-2T/UP1 GST fusions; made in house; host or cells: HEK293 cells
Method: as §1, §2, §3

human cyclin D1 IRES = assay: Dicistronic IRES mRNA reporter assay (firefly luciferase), cyclin D1 IRES; assay type: cell-based; settings: 293T cells, 50 nM, 24 h
cyclin D1 mRNA = assay: Polysome analysis of xenografted LN229 tumors, cyclin D1 mRNA
Method: Cells were lysed in buffer containing 100 μg/ml cycloheximide at 4° C. Following removal of mitochondria and nuclei, supernatants were layered onto 15-50% sucrose gradients and centrifuged at 38,000 rpm for 2 h at 4° C. in an SW40 rotor (Beckman Instruments). Gradients were fractionated into 11 1-ml fractions using a density gradient fractionator (Brandel Instruments). The profiles of the gradients were monitored at 260 nm, and RNAs from individual fractions were pooled into a nonribosomal/monosomal pool and a polysomal pool. These RNAs (100 ng) were used in real time quantitative RT-PCR analysis for the indicated transcripts.
Tumor extracts were subjected to sucrose density gradient centrifugation, fractionated and pooled into nonribosomal, monosomal fraction (N, white bars) and a polysomal fraction (P, black bars). Purified RNAs were used in real-time qRT-PCR analysis to determine the distributions of cyclin D1, c-MYC and actin mRNAs across the gradients. […] Means and +S.D. values are shown for quadruplicate RT-PCR measurements. *, P<0.05.
Polysomes were separated via sucrose density gradient sedimentation and fractionated into heavy polysomal and nonribosomal/monosomal fractions.

T1 sequence (P09651 1-196): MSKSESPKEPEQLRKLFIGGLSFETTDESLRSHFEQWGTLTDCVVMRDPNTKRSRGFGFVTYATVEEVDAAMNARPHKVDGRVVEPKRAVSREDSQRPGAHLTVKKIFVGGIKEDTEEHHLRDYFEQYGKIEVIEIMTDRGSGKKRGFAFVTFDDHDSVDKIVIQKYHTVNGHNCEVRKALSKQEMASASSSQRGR
T3 sequence (P09651 whole entry, the tested form may be a part): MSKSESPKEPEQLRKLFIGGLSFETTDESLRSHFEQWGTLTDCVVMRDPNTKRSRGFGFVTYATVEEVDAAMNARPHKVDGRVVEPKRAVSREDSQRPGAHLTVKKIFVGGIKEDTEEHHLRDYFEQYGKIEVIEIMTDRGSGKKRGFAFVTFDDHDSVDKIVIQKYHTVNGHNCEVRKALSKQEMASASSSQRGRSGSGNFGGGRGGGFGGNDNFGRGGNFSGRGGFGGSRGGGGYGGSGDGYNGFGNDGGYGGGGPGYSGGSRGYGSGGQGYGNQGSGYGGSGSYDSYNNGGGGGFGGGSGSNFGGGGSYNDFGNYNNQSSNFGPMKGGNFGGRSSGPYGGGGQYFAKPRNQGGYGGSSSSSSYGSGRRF
T2 sequence (P09651 whole entry H120A/D123A/Y124A/N171A, the tested form may be a part): as the sequence (P09651 whole entry, the tested form may be a part) above, with H120A, D123A, Y124A, N171A counted along it

SMILES	association of UP1 fragment (a.a. 1-196) with cyclin D1 or c-MYC IRESs [1]	amount of mutant hnRNP A1 (4ΔA1) bound to inhibitor beads relative to native hnRNP A1 (hnRNP A1 [2])	binding of native GST-tagged hnRNP A1 to inhibitor-cross-linked beads (hnRNP A1 [3])	basal cyclin D1 IRES activity (human cyclin D1 IRES)	ability to block UP1/IRES RNA interactions compared to C11 [1]	cyclin D1 mRNA translational efficiency (cyclin D1 mRNA; IRES-J007 monotherapy)	CCND1 mRNA polysomal (cyclin D1 mRNA; PP242 and IRES-J007 cotherapy)
COc1ccc(CN2C(=O)C(Cl)=C(Cl)C2=O)c(OC)c1 [Compound C11, reference compound]	blocked association	markedly reduced	bound	reduced IRES activity			
COc1ccc(CN2C(=O)c3ccccc3C2=O)c(OC)c1 [IRES-J007, 2-((2,4-Dimethoxyphenyl)methyl)isoindoline-1,3-dione]	blocked association	markedly reduced	bound	reduced IRES activity	modest, yet significant increase	significant reduction	5%
